Values of other authors in US20050070512A1, “Pharmaceutical composition and methods comprising combinations of 2-alkylidene-19-nor-vitamin D derivatives and an estrogen agonist/antagonist” (Pfizer Inc, priority 2003, published 2005).

Tested on: HL-60 cells

Structure (SMILES) | Induction of differentiation of HL-60 cells to the monocyte (in words)
C=C1[C@H](O)CC(=C/C=C2\CCC[C@]3(C)[C@@H]([C@@H](C)CCCC(C)(C)O)CC[C@@H]23)C[C@H]1O [2-Methylene-19-Nor-20S-1,25-(OH)2D3, (20S)-1α,25-dihydroxy-2-methylene-19-nor-vitamin D3] | extremely potent
C=C1[C@H](O)CC(=C/C=C2\CCC[C@]3(C)[C@@H]([C@H](C)CCCC(C)(C)O)CC[C@@H]23)C[C@H]1O [2-Methylene-19-Nor-1,25-(OH)2D3, 1α,25-dihydroxy-2-methylene-19-nor-vitamin D3] | activity similar to 1,25-(OH)2D3
